Like-named read-outs stand apart in the source and are kept apart here.
Experiments:
CDK1 = target: T1, CDK1 (Homo sapiens, UniProt P06493); assay: CDK1 in vitro kinase activity, single concentration 1 μM; type: biochemical; conditions: single concentration 1 μM
T1 construct: purchased BPS Bioscience 79597
Experimental: (§1) Kinase activity was assessed using the kinase assay kits from BPS Bioscience for CDK1, CDK9 and CDK12 with Kinase Glo MAX in duplicates. Compounds were tested at a single concentration of 1 μM for CDK1 and CDK9 activity, and in a dilution ranging from 0.64 nM to 50 μM for CDK12 activity. Chemiluminescence was read using the Neo Synergy BioTek plate reader.

OCI-AML5 cells = assay: Dose-response proliferative assay in OCI-AML5 (4 days, CellTiterGlo); type: cell-based, H. sapiens; conditions: read-out: IC50 in AML5
Experimental: Cell lines were purchased from the ATCC or donated from collaborators. OCI-AML5 cell line was cultured in αMEM, 10% heat-inactivated FBS supplemented with 10 ng/mL GM-CSF, OCI-AML1, U2OS and HEK293T cell lines in DMEM, 10% heat-inactivated FBS. Cells were maintained at 37 °C in 5% CO2 atmosphere.
Dose-response assays in primary AML specimens were performed as in chemical screen (see above) with the exception that compounds were tested in serial dilution (8 dilutions, 1:4, 10 μM down to 0.5 nM). Dose-response assays in OCI-AML5 cell line were conducted similarly with the following modifications: 300 cells per well were seeded in 50 μL of cell line media and cell viability was evaluated after 4 days in culture.

CDK9/CyclinT = target: T2, CDK9/CyclinT (Homo sapiens, UniProt P50750); assay: CDK9/CyclinT in vitro kinase activity, single concentration 1 μM; type: biochemical; conditions: single concentration 1 μM
T2 construct: purchased BPS Bioscience 79628
T2 sequence (P50750 whole entry): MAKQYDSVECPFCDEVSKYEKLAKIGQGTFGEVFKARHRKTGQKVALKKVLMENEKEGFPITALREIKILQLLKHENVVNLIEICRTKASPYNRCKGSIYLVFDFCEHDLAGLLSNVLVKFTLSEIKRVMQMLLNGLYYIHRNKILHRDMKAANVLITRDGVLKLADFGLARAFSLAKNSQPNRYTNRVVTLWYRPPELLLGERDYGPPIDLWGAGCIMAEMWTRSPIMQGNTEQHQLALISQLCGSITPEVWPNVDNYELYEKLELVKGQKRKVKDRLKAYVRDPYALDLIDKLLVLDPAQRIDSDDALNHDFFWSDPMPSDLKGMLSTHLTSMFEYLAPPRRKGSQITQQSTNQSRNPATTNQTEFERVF
T2 sequence (O60563 whole entry partner): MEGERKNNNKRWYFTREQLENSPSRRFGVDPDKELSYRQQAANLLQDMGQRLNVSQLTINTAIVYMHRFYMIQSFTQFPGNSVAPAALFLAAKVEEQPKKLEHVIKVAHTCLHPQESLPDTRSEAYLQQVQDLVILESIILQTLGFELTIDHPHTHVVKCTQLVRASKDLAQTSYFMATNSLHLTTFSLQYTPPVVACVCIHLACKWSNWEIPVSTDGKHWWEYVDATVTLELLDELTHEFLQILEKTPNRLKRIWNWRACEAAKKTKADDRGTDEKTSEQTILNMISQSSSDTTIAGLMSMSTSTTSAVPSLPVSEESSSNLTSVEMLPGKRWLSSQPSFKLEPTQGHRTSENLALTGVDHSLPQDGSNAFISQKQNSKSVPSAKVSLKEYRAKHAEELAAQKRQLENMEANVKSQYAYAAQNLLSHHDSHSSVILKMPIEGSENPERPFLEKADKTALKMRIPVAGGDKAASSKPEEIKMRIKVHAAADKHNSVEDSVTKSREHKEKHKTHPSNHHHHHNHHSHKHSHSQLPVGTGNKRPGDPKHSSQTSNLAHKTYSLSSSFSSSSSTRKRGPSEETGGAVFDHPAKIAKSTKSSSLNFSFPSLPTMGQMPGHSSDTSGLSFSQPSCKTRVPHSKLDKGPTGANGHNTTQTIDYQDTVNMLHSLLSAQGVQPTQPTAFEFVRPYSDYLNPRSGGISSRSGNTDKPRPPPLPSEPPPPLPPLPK
Experimental: as §1

[1] = system: OCI-AML5 cells expressing shRNAs targeting CDK1, 2, 4, 7, 9, cyclin K; assay: Dose response in OCI-AML5 expressing shRNAs targeting CDK1, 2, 4, 7, 9, cyclin K or control; type: cell-based, H. sapiens; conditions: for Class: class from shRNA IC50 profile and cyclin K-eGFP degradation
[2] = system: OCI-AML5 cells expressing shRNA targeting CUL4A or CUL4B; assay: Dose response in OCI-AML5 expressing shRNAs targeting CUL4A, CUL4B or control; type: cell-based, H. sapiens; conditions: ratio of IC50 in shCUL4A vs shCTRL OCI-AML5 cells
cyclin KeGFP = assay: Cyclin KeGFP reporter system (eGFP/mCherry MFI by flow cytometry);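 further: 10 μM compound for 3 h relative to DMSO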; type: cell-based, H. sapiens; conditions: cyclin K-eGFP reporter
Experimental: We used the cyclin KeGFP reporter system previously described (Słabicki et al, [2020]). Lentiviral vector (Addgene plasmid #169930) was used to infect OCI-AML5 at a MOI of 5 and were selected with puromycin. Cells were seeded in methylcellulose and let grown as colonies for 10 days. Colonies were isolated, expanded and selected based on cyclin KeGFP fluorescence in presence and absence of cyclin K degrader molecules. Selected G7 clone was used for all reported experiments. Fluorescent signal of cyclin KeGFP and mCherry were quantified by flow cytometry (BD LSRII) in each condition and the geometric mean fluorescence intensity (MFI) were calculated using FlowJo (BD Biosciences). The ratio of eGFP to mCherry was normalized to DMSO-treated cells.

[3] = Homo sapiens, OCI-AML-5, OCI-AML5 cells
[4] = Homo sapiens, OCI-AML-5, OCI-AML5 expressing shRNA CCNK (cyclin K), read-out: IC50 shRNA CCNK
[5] = Homo sapiens, OCI-AML-5, OCI-AML5 expressing shRNA CDK1, read-out: IC50 shRNA CDK1
[6] = Homo sapiens, OCI-AML-5, OCI-AML5 expressing shRNA CDK2, read-out: IC50 shRNA CDK2
[7] = Homo sapiens, OCI-AML-5, OCI-AML5 expressing shRNA CDK4, read-out: IC50 shRNA CDK4
[8] = Homo sapiens, OCI-AML-5, OCI-AML5 expressing shRNA CDK7, read-out: IC50 shRNA CDK7
[9] = Homo sapiens, OCI-AML-5, OCI-AML5 expressing shRNA CDK9, read-out: IC50 shRNA CDK9
[10] = OCI-AML5 expressing shRNA CCNK (cyclin K), read-out: IC50 shRNA CCNK
[11] = OCI-AML5 expressing shRNA CDK1, read-out: IC50 shRNA CDK1
[12] = OCI-AML5 expressing shRNA CDK2, read-out: IC50 shRNA CDK2
[13] = OCI-AML5 expressing shRNA CDK4, read-out: IC50 shRNA CDK4
[14] = OCI-AML5 expressing shRNA CDK7, read-out: IC50 shRNA CDK7
[15] = OCI-AML5 expressing shRNA CDK9, read-out: IC50 shRNA CDK9

T1 sequence (P06493 whole entry): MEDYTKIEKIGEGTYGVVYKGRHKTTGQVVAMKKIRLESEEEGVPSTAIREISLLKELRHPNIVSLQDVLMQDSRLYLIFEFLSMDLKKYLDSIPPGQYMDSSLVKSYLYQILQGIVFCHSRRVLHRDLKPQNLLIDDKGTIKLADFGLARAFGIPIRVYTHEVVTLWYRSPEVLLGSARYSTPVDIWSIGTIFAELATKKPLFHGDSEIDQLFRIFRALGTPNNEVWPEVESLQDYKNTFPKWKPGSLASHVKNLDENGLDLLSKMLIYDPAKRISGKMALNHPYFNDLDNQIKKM
T1 sequence (P14635 whole entry partner): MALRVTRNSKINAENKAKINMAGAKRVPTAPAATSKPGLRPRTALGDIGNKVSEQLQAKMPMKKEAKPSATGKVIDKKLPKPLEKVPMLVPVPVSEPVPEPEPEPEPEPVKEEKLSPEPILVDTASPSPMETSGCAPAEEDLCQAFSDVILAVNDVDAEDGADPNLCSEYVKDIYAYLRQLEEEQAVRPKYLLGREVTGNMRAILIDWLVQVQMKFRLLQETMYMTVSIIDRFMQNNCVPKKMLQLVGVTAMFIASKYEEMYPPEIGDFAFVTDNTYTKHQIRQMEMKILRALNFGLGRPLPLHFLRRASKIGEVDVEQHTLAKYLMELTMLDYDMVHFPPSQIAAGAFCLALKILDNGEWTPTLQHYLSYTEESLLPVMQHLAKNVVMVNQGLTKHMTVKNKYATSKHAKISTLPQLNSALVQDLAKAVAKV

Row | Compound | inhibition at 1 µM (CDK1) [%] | IC50 (OCI-AML5 cells; [3]) [nM] | inhibition at 1 µM (CDK9/CyclinT) [%] | IC50 [1, 4] [nM] | IC50 [1, 5] [nM] | IC50 [1, 6] [nM] | IC50 [1, 7] [nM] | IC50 [1, 8] [nM] | IC50 [1, 9] [nM] | Class [1] | IC50 (OCI-AML5 cells; OCI-AML5 cells) [nM] | % CDK9 inhibition (CDK9/CyclinT) [%] | IC50 [1, 10] [nM] | IC50 [1, 11] [nM] | IC50 [1, 12] [nM] | IC50 [1, 13] [nM] | IC50 [1, 14] [nM] | IC50 [1, 15] [nM] | Ratio shCUL4A/shCTRL [2] | % degradation cyclin K-eGFP (cyclin KeGFP) [%]
1 | CC(=O)N[C@@H]1CCC[C@H](C(=O)Nc2cc(-c3cnn4c3CC(C)(C)C4)c(Cl)cn2)C1 [AZD4573, reference compound] | 90 | 1 | 100 | 1.09 | 1.06 | 1.06 | 1.05 | 1.67 | 0.727 | 2 | – | – | – | – | – | – | – | – | – | –
2 | CC(C)(C)OC(=O)N1CCC(C(=O)Nc2ncc(SCc3cccnc3)s2)CC1 [UOM-005205] | – | – | – | – | – | – | – | – | – | – | 2920 | 40 | 5110 | 2990 | 2940 | 5080 | 3300 | 4300 | 0.65 | 32
3 | CSc1ccc(CC(=O)Nc2ncc(SCc3cccnc3)s2)cc1 [UOM-005206] | – | 1180 | 67 | 458 | 867 | 1280 | 1300 | 1330 | 848 | mixed 1-2 | – | – | – | – | – | – | – | – | 1.77 | 76
4 | O=C(CC1CCCC1)Nc1ncc(SCc2cccnc2)s1 [UOM-005225] | – | 3780 | 73 | 4560 | 2360 | 2920 | 4090 | 4060 | 3000 | 2 | – | – | – | – | – | – | – | – | 1.07 | 2
5 | Cc1nc(CC(=O)Nc2ncc(SCc3cccnc3)s2)c(C)s1 [UOM-005227] | – | 5630 | 53 | 6240 | 7680 | 6500 | 4780 | 4780 | 5390 | – | – | – | – | – | – | – | – | – | 1.12 | 0
6 | Cn1cc(CC(=O)Nc2ncc(SCc3cccnc3)s2)c2ccccc21 [UOM-005228] | – | 4040 | 51 | 5430 | 2270 | 4580 | 4400 | 4120 | 3260 | 2 | – | – | – | – | – | – | – | – | 0.81 | 23
7 | O=C(Nc1ncc(SCc2cccnc2)s1)C1CCNCC1 [UOM-005283] | – | 3860 | 71 | 3700 | 4180 | 4640 | 3900 | 3020 | 2840 | – | – | – | – | – | – | – | – | – | 0.91 | 4
8 | Cl.Cl.O=C(CC1CCNC1)Nc1ncc(SCc2cccnc2)s1 (stereo not drawn) [UOM-005300] | – | 7070 | 64 | 5410 | 3380 | 5420 | 4450 | 2900 | 3010 | 2 | – | – | – | – | – | – | – | – | 1.07 | 5
9 | C=C(C(=O)Nc1ncc(SCc2cccnc2)s1)c1ccc2c(c1)[nH]c1ccc(Cl)cc12 [UOM-005447] | – | 7360 | 73 | 5410 | 3210 | 3430 | 3940 | 4090 | 4740 | 2 | – | – | – | – | – | – | – | – | 0.72 | 63
10 | O=C(Cc1ccc(NC(=O)c2ccccn2)cc1)Nc1ncc(SCc2cccnc2)s1 [UOM-005474] | – | 1240 | 59 | 1000 | 753 | 927 | 1080 | 949 | 551 | 2 | – | – | – | – | – | – | – | – | 1.03 | 5
11 | O=C(Cc1ccc(NC(=O)C23CC4CC(CC(C4)C2)C3)cc1)Nc1ncc(SCc2cccnc2)s1 [UOM-005477] | – | – | – | – | – | – | – | – | – | 2 | 1250 | 81 | 1030 | 741 | 1090 | 1200 | 940 | 594 | 0.9 | 6
12 | O=C(Cc1ccc(NC(=O)c2ccccc2)cc1)Nc1ncc(SCc2cccnc2)s1 [UOM-005478] | – | 1350 | 82 | 1060 | 548 | 1080 | 1050 | 1020 | 355 | 2 | – | – | – | – | – | – | – | – | 0.95 | 8
13 | O=C(Cc1ccccn1)Nc1ncc(SCc2cccnc2)s1 [UOM-005566] | – | 6560 | 15 | 6050 | 3920 | 7030 | 8880 | 7580 | 5480 | 2 | – | – | – | – | – | – | – | – | 1.07 | 4
14 | O=C(Cc1ccc(N2CCCCC2)cc1)Nc1ncc(SCc2cccnc2)s1 [UOM-005607] | – | 1850 | 90 | 866 | 792 | 3010 | 2190 | 2050 | 910 | mixed 1-2 | – | – | – | – | – | – | – | – | 0.9 | 30

Source: paper PMC12152147, “DDB1 engagement defines the selectivity of S656 analogs for cyclin K degradation over CDK inhibition” (EMBO Reports, 2025)
